In patent publication US20240116845A1, “INDENE COMPOUNDS, PHARMACEUTICAL COMPOSITIONS THEREOF, AND THEIR THERAPEUTIC APPLICATIONS” (NucMito Pharmaceuticals Co., Ltd., priority 2021, published 2024) one finds inhibition data, which are given here for 17 compounds.

Type in all cases: cell-based
For experiment [1], the system named is alpha-smooth muscle actin (α-SMA). Description: Inhibition of TGF-β induced expression of alpha-smooth muscle actin in CFSC cells (western blot). The note with it: compound at 10 μM, TGF-β (10 ng/mL), 24 hours. How it is done:
The ability of a compound to inhibit the TGF-β induced expression of alpha-smooth muscle actin (α-SMA) was evaluated in CCl4-treated fat storing (CFSC) cells. α-SMA is considered as a reliable marker of hepatic stellate cell activation and a key biomarker for liver fibrosis.
CFSC cells maintained in a DMEM medium supplemented with 10% fetal bovine serum were seeded to 12-well culture dishes and grown to a confluence of 60-70% the next day. Culture was changed to a serum-free DMEM medium and the cells were treated with the compound at 10 μM in the presence of TGF-β (10 ng/mL). The cells were incubated for another 24 hours. All culture was maintained at 37° C. in 5% carbon dioxide.
An NP-40 lysate solution (50 mM Tris, pH 7.4, 150 mM NaCl, 1% NP-40) with EDTA free cocktail added was used to lyse the cells on ice for 30 min. The lysate was collected and centrifuged at 4° C. for 10 min at 12,000 rpm. The pellet was discarded and the supernatant was transferred to a new tube. The cell lysate was loaded with 5× loading buffer and boiled for 10 min, resolved by 10% SDS-polyacrylamide gel electrophoresis (SDS-PAGE), and transferred to a PVDF membrane. The membrane was blocked with 5% skim milk in Tris-buffered saline and TWEEN® 20 (TBST; 10 mM Tris-HCl, pH 8.0, 150 mM NaCl, 0.1% TWEEN® 20) for 1 h at room temperature and then incubated with α-SMA and β-actin antibodies overnight at 4° C. After washing twice with TBST, the membrane was probed with a […] anti-immunoglobulin (1:5000 dilution) for 1 h at room temperature. After two subsequent rinses in TBST, immunoreactive products were reacted with ECL and visualized by a UVP CHEMSTUDIO™ imaging system. The western blotting bands are quantitated using an ImageJ software. The percentage of inhibition was obtained by calculating the percentage decrease in the band intensity compared to the one treated with TGF-β only.
The results are summarized in Table 1, where A represents a value no less than 80/% inhibition, B represents a value less than 80% but no less than 50% inhibition, C represents a value less than 50% but no less than 30% inhibition, and D represents a value less than 30% inhibition with a compound at 10 μM.

The test system of experiment [2] is A549 (lung adenocarcinoma). Description: Antiproliferative activity, CCK-8 cell viability. The note with it: Homo sapiens, 72 h, read-out: Inhibition of Cancerous Cells, A549. As to the method: (§1) The antiproliferative activity of a compound was determined in the following cell lines: MDA-MB-231 (breast cancer), HepG2 (liver cancer), SW480 (colon cancer), B16F10 (malignant melanoma), A431 (epidermoid carcinoma), A549 (lung adenocarcinoma), and HeLa (cervical cancer). MDA-MB-231, HepG2, SW480, B16F10, and A431 cells were cultured in Dulbecco's modified Eagle's medium (DMEM) containing 10% fetal bovine serum (FBS). HeLa cells were cultured in MEM/EBSS (MEM) containing 10% FBS. A549 cells were maintained in Kaighn's modification of Ham's F-12 medium containing 10% FBS. The Cell Counting Kit-8 (CCK-8) assay was used to determine the cell viability of cells following treatment with the compound.
(§2) Briefly, cells were seeded in a 96-well plate at a density of 2,000-5,000 cells/well. Following attachment, the cells were treated with the compound in media at a compound concentration of 3.3 μM, 10 μM, or 30 μM, or DMSO as a control. After the cells were incubated at 37° C. for 72 h, the CCK-8 solution (10 μL) was added to each well. After incubation at 37° C. for 4 h, the absorbance value of each well was determined using a multi-well plate reader at 450 nm. The percentage of cell viability was determined with respect to the DMSO-treated cells. The results were summarized in Table 2-4 below, wherein A represents no less than 50% inhibition of cell growth; B represents less than 50% but no less than 30% inhibition of cell growth; C represents less than 30% inhibition of cell growth.

For experiment [3], the system named is B16F10 (malignant melanoma). Description: Antiproliferative activity, CCK-8 cell viability. The following applies: Mus musculus, B16-F10, 72 h, read-out: Inhibition of Cancerous Cells, B16F10. As to the method: as §1, §2
Experiment [4] concerns HeLa (cervical cancer). Kind of experiment: Antiproliferative activity, CCK-8 cell viability. The following applies: Homo sapiens, 72 h, read-out: Inhibition of Cancerous Cells, HELA. How it is done: as §1, §2
Experiment [5] relates to HepG2 (liver cancer). Description: Antiproliferative activity, CCK-8 cell viability. The note with it: Homo sapiens, 72 h, read-out: Inhibition of Cancerous Cells, HepG2. As to the method: as §1, §2
Experiment [6] concerns MDA-MB-231 (breast cancer). Description: Antiproliferative activity, CCK-8 cell viability. The following applies: Homo sapiens, 72 h, read-out: Inhibition of Cancerous Cells, MDA-MB-231. As to the method: as §1, §2
Experiment [7] relates to SW480 (colon cancer). Description: Antiproliferative activity, CCK-8 cell viability. The following applies: Homo sapiens, 72 h, read-out: Inhibition of Cancerous Cells, SW480. How it is done: as §1, §2
Setting [8] is: compound concentration of 3.3 μM.
Where [9] appears, read: compound concentration of 10 μM.
Setting [10] is: compound concentration of 30 μM.

As to `CC1=C(CC(=O)O)c2cc(F)ccc2/C1=C\c1cccc(Oc2ccccc2)c1` [Compound D18, (Z)-2-(5-Fluoro-2-methyl-1-(3-phenoxybenzylidene)-1H-inden-3-yl)acetic acid], the inhibition (commonly the change of the read-out against control, counted positive when it falls) at 10 µM in experiment [1] is ≥ 80%.
With `CC1=C(CC(=O)O)c2cc(F)ccc2/C1=C\c1ccc(COc2ccc(F)cc2)cc1C(F)(F)F` [Compound A14, 2-[(1Z)-5-Fluoro-1-({4-[(4-fluorophenoxy)methyl]-2-(trifluoromethyl)phenyl}-methylidene)-2-methyl-1H-inden-3-yl]acetic acid], the inhibition at 10 µM in experiment [1] is ≥ 80%.
With `CC1=C(CC(=O)N(C)O)c2cc(F)ccc2/C1=C\c1ccc(C)c2ccccc12` [Compound C1, (Z)-2-(5-Fluoro-2-methyl-1-((4-methylnaphthalen-1-yl)methylene)-1H-inden-3-yl)-N-hydroxy-N-methylacetamide], the inhibition at 10 µM in experiment [1] is 50 to 80%.
On to `CC1=C(CC(=O)O)c2cc(C(C)(C)C)ccc2/C1=C\c1ccc(Oc2ccc(F)cc2)cc1` [Compound D17, 2-[(1Z)-5-Tert-butyl-2-methyl-1-({4-[4-fluorophenoxy]phenyl}methylidene)-1H-inden-3-yl]acetic acid], for which the inhibition at 10 µM in experiment [1] was ≥ 80%.
On the same count and under the same terms, with `CC1=C(CC(=O)NO)c2cc(F)ccc2/C1=C\c1ccc(Oc2ccc(C(C)C)cc2)cc1` [Compound D1, 2-[(1Z)-5-Fluoro-2-methyl-1-({4-[4-(propan-2-yl)phenoxy]phenyl}methylidene)-1H-inden-3-yl]-N-hydroxyacetamide] the figure was ≥ 80%; with `CC1=C(CC(=O)O)c2cc(F)ccc2/C1=C\c1ccc(Oc2ccc(C)c(F)c2)cc1` [Compound D4, 2-[(1Z)-5-Fluoro-2-methyl-1-({4-[3-fluoro-4-methylphenoxy]phenyl}-methylidene)-1H-inden-3-yl]acetic acid], ≥ 80%.
On to `CC1=C(CC(=O)O)c2cc(F)ccc2/C1=C/c1ccc(Oc2ccccc2)cc1` [Compound E3, 2-[(1E)-5-Fluoro-2-methyl-1-[(4-phenoxyphenyl)methylidene]-1H-inden-3-yl]acetic acid], for which, in experiment [1], the inhibition at 10 µM was ≥ 80%.
For `CC1=C(CC(=O)NO)c2cc(F)ccc2/C1=C\c1ccc(C2=CCCC2)cc1` [Compound D40, (Z)-2-(1-(4-(Cyclopent-1-en-1-yl)benzylidene)-5-fluoro-2-methyl-1H-inden-3-yl)-N-hydroxyacetamide], the inhibition at 10 µM in experiment [1] fell in the range of 50 to 80%.
Take `CC1=C(CC(=O)N(C)O)c2cc(F)ccc2/C1=C\c1ccc(C2CC2)cc1` [Compound B3, (Z)-2-(1-(4-Cyclopropylbenzylidene)-5-fluoro-2-methyl-1H-inden-3-yl)-N-hydroxy-N-methylacetamide]: the inhibition at 10 µM in experiment [1] is ≥ 80%.
With `CC1=C(CC(=O)O)c2cc(F)ccc2/C1=C\c1cccc(N(C)c2ccccc2)c1` [Compound D37, 2-[(1Z)-5-Fluoro-2-methyl-1-({3-[methyl(phenyl)amino]phenyl}methylidene)-1H-inden-3-yl]acetic acid], the inhibition at 10 µM in experiment [1] is ≥ 80%.
For the compound `COc1ccc2c(c1)C(CC(=O)O)=C(C)/C2=C/c1ccc(Oc2ccc(F)cc2)cc1` [Compound D10, 2-[(1Z)-5-Methoxy-2-methyl-1-({4-[4-fluorophenoxy]phenyl}methylidene)-1H-inden-3-yl]acetic acid], the inhibition at 10 µM in experiment [1] was ≥ 80%.
In the case of `COc1ccc2c(c1)/C(=C\c1cccc(Oc3ccccc3)c1)C(C)=C2CC(=O)O` [Compound D35, 2-[(1Z)-6-Methoxy-1-(3-(phenoxy)benzylidene)-2-methyl-1H-inden-3-yl]-acetic acid], the inhibition at 10 µM in experiment [1] is < 30%.
In the case of `O=C(O)CC1=C/C(=C/c2ccc(Oc3ccc(F)cc3)cc2)c2ccccc21` [Compound D32, 2-[(1Z)-1-{[4-(4-Fluorophenoxy)phenyl]methylidene}-1H-inden-3-yl]acetic acid], the inhibition at 3.3 µM in experiment [2] (setting [8]) was < 30%; in experiment [3] (setting [8]), < 30%; in experiment [4] (setting [8]), 30 to 50%; in experiment [5] (setting [8]) it was ≥ 50%; in experiment [6] (setting [8]), < 30%; in experiment [7] (setting [8]), < 30%. For the same compound, the inhibition at 10 µM in experiment [2] (setting [9]) is < 30%; in experiment [3] (setting [9]), 30 to 50%; in experiment [4] (setting [9]), 30 to 50%; in experiment [5] (setting [9]) it was ≥ 50%; in experiment [6] (setting [9]), < 30%; in experiment [7] (setting [9]) it was < 30%. For the same compound, the inhibition at 30 µM was 30 to 50% in experiment [2] (setting [10]); ≥ 50% in experiment [3] (setting [10]); ≥ 50% in experiment [4] (setting [10]); ≥ 50% in experiment [5] (setting [10]); 30 to 50% in experiment [6] (setting [10]); < 30% in experiment [7] (setting [10]).
As to `CC1=C(CC(=O)NO)c2cc(F)ccc2/C1=C\c1ccc(Br)c2ccccc12` [Compound C4, (Z)-2-(1-((4-Bromonaphthalen-1-yl)methylene)-5-fluoro-2-methyl-1H-inden-3-yl)-N-hydroxyacetamide], in experiment [1], the inhibition at 10 µM was ≥ 80%.
On to `CC1=C(CC(=O)O)c2cc(F)ccc2/C1=C\c1ccc(OCc2ccccc2)cc1` [Compound A2, 2-[(1Z)-5-Fluoro-1-(4-(benzyloxy)benzylidene)-2-methyl-1H-inden-3-yl]-acetic acid], for which the inhibition at 10 µM in experiment [1] is ≥ 80%.
For the compound `COc1ccc2c(c1)C(CC(=O)O)=C(C)/C2=C/c1ccc(Oc2ccccc2)cc1` [Compound D11, 2-[(1Z)-5-Methoxy-2-methyl-1-[(4-phenoxyphenyl)methylidene]-1H-inden-3-yl]acetic acid], the inhibition at 10 µM in experiment [1] is ≥ 80%.
For the compound `CC1=C(CC(=O)O)c2cc(F)ccc2/C1=C\c1ccc(F)cc1OCc1ccccc1` [Compound A7, 2-[(1Z)-1-{[2-(Benzyloxy)-4-fluorophenyl]methylidene}-5-fluoro-2-methyl-1H-inden-3-yl]acetic acid], the inhibition at 10 µM in experiment [1] was < 30%.
